This experiment concerns DU-145 cells. The experiment is classed as cell-based, human.

As to `C=C1[C@@H](C)[C@H]2[C@H](Cc3ccccc3)NC(=O)[C@]23[C@H](OC(C)=O)/C=C/[C@@](C)(O)C(=O)[C@@H](C)C/C=C/[C@H]3[C@@H]1O` [Cytochalasin-D], the “effect on cell migration” value is recorded as “did not migrate”.
